{"source": "patent US20230212124A1", "about": "“SMALL-MOLECULE INHIBITORS OF THE FRS2-FGFR INTERACTION” (UNIVERSITÄT ZÜRICH, priority 2020, published 2023)", "key": {"FGF signaling pathway": {"test_system": "FGF signaling pathway", "assay": "Immunoblotting / pathway analysis", "format": "cell-based", "experimental": "(§1) Cancer cells were treated with bFGF (100 ng/ml) and/or with compounds and lysed using Radioimmunoprecipitation assay (RIPA) buffer. RIPA buffer lysates were resolved by SDS-PAGE and transferred to a nitrocellulose membrane using a transfer apparatus according to the manufacturer's instructions (Bio-Rad). Membranes were probed with primary antibodies against phospho-FRS2, FRS2, ERK1/2, phospho-ERK1/2, AKT, phosphor-AKT, phospho-PKC and tubulin. HRP-linked secondary antibodies (1:5000) were used to detect the primary antibodies. Chemiluminescence detection was performed using ChemiDoc Touch Gel and Western Blot imaging system (BioRad).\nas §1, with “RIPA” for “Cancer cells were treated with bFGF (100 ng/ml) and/or with compounds and lysed using Radioimmunoprecipitation assay (RIPA) buffer. RIPA”, “buffer FGFR-driven cell” for “buffer”, “phospho-AKT,” for “phosphor-AKT,”, “(BioRad). Integrated density of Immuno-reactive bands was quantified using Adobe Photoshop CS5.” for “(BioRad).”"}, "In vivo pharmacokinetics": {"assay": "In vivo pharmacokinetics", "settings": "mice, intravenous", "experimental": "3 Healthy non-SCID mice were intravenously treated with F3.14—Blood samples were collected at 2, 4, 6, 8 and 24 hours after treatment. Serum from the collected blood samples were isolated and the concentration of F3.14 in the serum was measure to determine the intrinsic clearance of F3.14."}, "FRS2": {"molecular_target": "T1, FRS2 (Homo sapiens, UniProt Q8WU20)", "T1 construct": "6xHis", "T1 sequence (Q8WU20 1-508)": "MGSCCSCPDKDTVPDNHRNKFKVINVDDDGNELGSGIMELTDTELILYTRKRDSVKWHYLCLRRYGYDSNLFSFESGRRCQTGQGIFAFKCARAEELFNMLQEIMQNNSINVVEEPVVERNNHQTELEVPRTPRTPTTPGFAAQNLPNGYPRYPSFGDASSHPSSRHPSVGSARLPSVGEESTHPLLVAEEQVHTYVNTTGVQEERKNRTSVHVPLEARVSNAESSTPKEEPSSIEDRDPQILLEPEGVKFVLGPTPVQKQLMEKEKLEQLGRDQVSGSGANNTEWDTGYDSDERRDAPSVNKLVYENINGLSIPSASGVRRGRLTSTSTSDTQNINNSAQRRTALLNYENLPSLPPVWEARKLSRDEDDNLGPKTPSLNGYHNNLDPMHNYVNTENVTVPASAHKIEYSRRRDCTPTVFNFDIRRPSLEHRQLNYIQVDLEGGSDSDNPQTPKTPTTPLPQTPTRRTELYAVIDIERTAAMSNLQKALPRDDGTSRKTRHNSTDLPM", "assay": "Biophysical binding assays (nanoDSF, MST, NMR)", "settings": "MST and NMR analysis", "experimental": "Nano Differential Scanning Fluorimetry (nanoDSF)\nPurified FRS2 protein tagged with 6× Histidine residues and Guanine nucleotide-binding protein subunit beta (GB1) was diluted in the protein buffer (100 mM sodium phosphate, 50 mM NaCl, 0.5 mM EDTA, 50 mM arginine, 1 mM TCEP, pH 7.0) to final concentration of 30 μM. The compounds were dissolved in 100% at 50 or 100 mM and further diluted to 1 mM with a final concentration of 100% DMSO. Compound and protein were mixed at 1:1 ration yielding final concentrations of 15 μM and 500 μM for the compounds. The mixture was incubated at room temperature for 15 minutes before measurement. The measurement was performed on a Prometheus system in high sensitivity capillaries. Samples were subjected to a temperature gradient of 20 to 95° C. with 1° C./min intervals.\nMicroscale Thermophoresis (MST)\nPurified FRS2 protein tagged with 6× Histidine residues and Guanine nucleotide-binding protein subunit beta (GB1) was labelled with 2nd generation BLUE-NHS dye. The protein was labelled at a final concentration of 20 µM with 60 μM dye. The labelling was performed in the protein buffer without arginine supplementation. Arginine was re-buffered to protein's buffer post-labelling. The compounds were dissolved in 100% at 50 or 100 mM and further diluted to 1 mM with a final concentration of 100% DMSO. […] The interaction was measured in two independent duplicates."}, "[1]": {"assay": "In vitro ADMET: semi-thermodynamic solubility", "format": "physicochemical", "settings": "aqueous solutions", "source_text": "(§2) FIG. 16 Table showing the in vitro absorption, distribution, metabolism, elimination and toxicity (ADMET) properties of F3.14."}, "[2]": {"test_system": "FGFR-driven cancer cell lines", "assay": "Spheroid invasion assay", "format": "cell-based", "settings": "all the FGFR-driven cancer cell lines tested", "experimental": "Spheroid Invasion Assay (S/A) and Automated Cell Dissemination Counter (aCDc)\n1000 cells/100 μl per well were seeded in cell-repellent 96 well microplate (650790, Greiner Bio-one). The cells were incubated at 37° C. overnight to form spheroids. 70 μl of the medium were removed from each well, and remaining medium with spheroid overlaid with 2.5% bovine collagen 1. Following the polymerization of collagen, fresh medium was added to the cells and treated with growth factors and/or with inhibitors. The cells were allowed to invade the collagen matrix for 24 h, after which they were fixed with 4% PFA and stained with Hoechst. Images were acquired on an Axio Observer 2 mot plus fluorescence microscope (Zeiss, Munic, Germany) using a 5×objective. Cell invasion is determined as the average of the distance invaded by the cells from the centre of the spheroid as determined using automated cell dissemination counter (aCDc) with our cell dissemination counter software aSDlcs (Kumar et al., Sci Rep 5, 15338 (2015))."}, "[3]": {"test_system": "FGFR-driven cancer cell lines", "assay": "Cell titer glo assay", "format": "cell-based", "settings": "all the FGFR-driven cancer cell lines tested", "experimental": "The metabolic activity and the proliferation of the cells were determined using the Cell Titer glo assay from Promega according to the manufacturer's instructions. In brief, 250 cells/100 μl/per well (for up to 72 h incubation) were seeded in Greiner Bio-One p-clear 384 well plates (655090, Greiner Bio-One) and incubated overnight at 37° C. The old media was then replaced with fresh serum-free media and the cells were treated with BGJ398 or F3.14 till the desired time point. Following appropriate incubation for each timepoint, 10 μl of the Cell titer glo reagent was added to each well (final concentration of cell titer glo reagent per well is 1:10) and incubated at 37° C. for 30 minutes. The luminescence was then measured with a signal integration time of 0.5 to 1 second per well."}, "[4]": {"assay": "In vitro ADMET: toxicity (MTT)", "format": "cell-based", "source_text": "as §2"}, "[5]": {"assay": "In vitro ADMET: permeability (efflux ratio)", "format": "in vitro ADME", "source_text": "as §2"}, "[6]": {"assay": "In vitro ADMET table: potency", "format": "cell-based", "source_text": "as §2"}, "[7]": {"assay": "In vitro ADMET: metabolic stability (intrinsic clearance, t½)", "format": "in vitro ADME", "source_text": "as §2"}}}
{"smiles": "CC(C)C[C@@H](CO)NCc1cc(O)c2cc(F)ccc2n1", "note": "[Compound F3.14]", "values": [{"measurement": "effect on FGF signal transduction (phosphorylation of downstream effectors)", "setting": "FGF signaling pathway", "result": "inhibits the FGF signal transduction by inhibiting the phosphorylation of the downstream effectors"}, {"measurement": "tolerability", "setting": "In vivo pharmacokinetics", "result": "well-tolerated"}, {"measurement": "binding to FRS2", "setting": "FRS2", "result": "confirmed the binding of F3.14 to FRS2"}, {"measurement": "solubility", "setting": "[1]", "result": "very good"}, {"measurement": "inhibition of cancer cell invasion", "setting": "[2]", "result": "effectively inhibits"}, {"measurement": "inhibition of cancer cell proliferation", "setting": "[3]", "result": "effectively inhibits"}, {"measurement": "toxicities", "setting": "[4]", "result": "very low"}, {"measurement": "permeability", "setting": "[5]", "result": "good"}, {"measurement": "potency", "setting": "[6]", "result": "high"}, {"measurement": "intrinsic clearance", "setting": "[7]", "result": "moderate"}]}
